# How the values were obtained:
# [1] = UV absorption and fluorescence spectra in solution; assay type: physicochemical; details: for absorption maximum (abs.) / emission maximum (em.): in MeOH, approximate, comparison
# [2] = Preparative photolysis in methanol, light >320 nm; assay type: physicochemical; details: MeOH, under N2, ambient temperature
# Description: Diazoketone 10 was subjected to photolysis in methanol in order to study the product distribution. Light with wavelengths >320 nm was used. The result of this experiment is presented in Scheme 6.
# NMR spectra were recorded with Varian MERCURY 300 spectrometer at 300 (^1H) and 75.5 MHz (^13C and APT). All spectra are referenced to tetramethylsilane as an internal standard (δ=0 ppm) using the signals of the residual protons of CHCl3 (7.26 ppm) in CDCl3, CHD2OD (3.31 ppm) in CD3OD, HOD (4.79 ppm) in D2O or [D5] DMSO (2.50 ppm) in [D6] DMSO. Multiplicities of signals are described as follows: s=singlet, br. s=broad singlet, d=doublet, br. d=broad doublet, t=triplet, q=quartet, m=multiplet. Coupling constants (J) are given in Hz. Multiplicities in the ^13C NMR spectra were determined by APT (Attached Proton Test) measurements. […] Analytical TLC was performed on MERCK ready-to-use plates with silica gel 60 (F254). […]
# Photolysis of diazoketone 10: A solution of compound 10 (70 mg, 0.15 mmol) in MeOH (150 mL) was placed into a reactor for photolysis, and nitrogen was bubbled for 30 min through the solution at room temperature with stirring. Then the lamp was turned on, and the reaction mixture was irradiated at ambient temperature with stirring under N2 for 40 min, until the starting compound could not be detected on TLC. […]
absorption maximum (abs.) [1],emission maximum (em.) [1],irradiation time until starting compound could not be detected [2],UV λmax ([1]; MeCN),ε at λmax ([1]; MeCN),Molecule
ca. 540 nm,about 560 nm,,,,5/6-carboxy rhodamine Q
,,40 min,241 nm,59700,CCN(CC)c1ccc2c(c1)Oc1cc(N(CC)CC)ccc1C21C(=[N+]=[N-])C(=O)c2ccccc21 [Compound 10]
about 560 nm,ca. 580 nm,,,,"CCN(CC)c1ccc2c(-c3ccccc3C(=O)O)c3ccc(=[N+](CC)CC)cc-3oc2c1.[Cl-] [rhodamine B, Rhodamine B]"

Molecule,absorption maximum (abs.) [1],emission maximum (em.) [1],irradiation time until starting compound could not be detected [2],UV λmax ([1]; MeCN),ε at λmax ([1]; MeCN)
"CN(C)c1ccc2c(-c3ccccc3C(=O)[O-])c3ccc(N(C)C)cc3[o+]c2c1 [TMR, N,N,N′,N′-Tetramethylrhodamine]",about 560 nm,ca. 580 nm,,,
